Data on three compounds can be found in ChEMBL document CHEMBL1154446, “Synthesis and preliminary biological evaluation of new carbon-11 labeled tetrahydroisoquinoline derivatives as SERM radioligands for PET imaging of ER expression in breast cancer” (Eur J Med Chem, 2008).

Holding throughout (type): functional, cell-based
Assay [1] has as its system MCF7. The assay can be described thus: Antiproliferative activity against human MCF7 cells at >0.625 to 10 nM after 24 hrs by MTS assay. For orientation: Tetrazolium dyes change colour on reduction, which living cells bring about.
Assay [2] concerns MCF7. The assay can be described thus: Antiproliferative activity against human MCF7 cells at 0.3125 to 0.625 nM after 24 hrs by MTS assay.
Assay [3] concerns MCF7. The assay can be described thus: Antiproliferative activity against human MCF7 cells at 0.625 nM after 24 hrs by MTS assay.

Calls of active or inactive are those of the source. The calls are words filed in the database; no cut-off is given here.

In the case of `COC(=O)C1CCN(CCOc2ccc(C3(C)c4ccc(O)cc4CCN3c3ccc(Cl)cc3)cc2)CC1` (stereo unspecified), the outcome in assay [1] and in assay [2] was Active.

`CCC(=C(c1ccc(O)cc1)c1ccc(OCCN(C)C)cc1)c1ccccc1`: the outcome in assay [1] and in assay [3] was Active.

`COC(=O)C1CCN(CCOc2ccc(C3(C)c4ccc(O)cc4CCN3c3ccc(F)cc3)cc2)CC1` (stereo unspecified): the result in assay [1] was Active. Further, in assay [3], the result was inactive.
